Experimental data taken from PubChem BioAssay (NCI).
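Five compound concentrations were applied to cells in 96-well plates for 48 hours; endpoints were derived by simple linear interpolation of the resulting dose-response curve. Here, GI50 denotes the concentration required for 50% inhibition of growth. At the TGI there is no net growth.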

How the values were obtained:
Test in all cases: DTP human tumour cell line panel, 48 h
KM12 colon = tested on: KM12 colon
RXF 393 renal = tested on: RXF 393 renal
OVCAR-4 ovarian = tested on: OVCAR-4 ovarian
LOX IMVI melanoma = tested on: LOX IMVI melanoma
UACC-62 melanoma = tested on: UACC-62 melanoma
U251 CNS = tested on: U251 CNS
SK-MEL-2 melanoma = tested on: SK-MEL-2 melanoma
SK-MEL-5 melanoma = tested on: SK-MEL-5 melanoma
PC-3 prostate = tested on: PC-3 prostate

Row | SMILES | TGI (KM12 colon) | TGI (RXF 393 renal) | TGI (OVCAR-4 ovarian) | TGI (LOX IMVI melanoma) | TGI (UACC-62 melanoma) | TGI (U251 CNS) | TGI (SK-MEL-2 melanoma) | TGI (SK-MEL-5 melanoma) | GI50 (KM12 colon) | GI50 (RXF 393 renal) | GI50 (PC-3 prostate) | TGI (PC-3 prostate) | GI50 (OVCAR-4 ovarian) | GI50 (LOX IMVI melanoma) | GI50 (UACC-62 melanoma) | GI50 (U251 CNS) | GI50 (SK-MEL-2 melanoma) | GI50 (SK-MEL-5 melanoma)
1 | COc1cc(OC)c2ssc3c(OC)cc(OC)c4ssc1c2-c43 | > 100 µM | > 100 µM | > 100 µM | > 100 µM | > 100 µM | > 100 µM | > 100 µM | > 100 µM |  |  |  |  |  |  |  |  |  | 
2 | O=Cc1ccc(-c2ccc(-c3nc4ccccc4[nH]3)cc2)s1 | 69 µM | 57.8 µM | 96.1 µM | 64.6 µM | 52.9 µM | > 100 µM | > 100 µM | 41.9 µM | 22.8 µM | 22.7 µM | 18.2 µM | 40.3 µM | 33.8 µM | 21.8 µM | 22.1 µM | 26.7 µM | 42 µM | 20.3 µM
3 | CC(C)N(C(=O)C1(C)CC1)C(C)C | > 100 µM | > 100 µM | > 100 µM |  | > 100 µM | > 100 µM | > 100 µM | > 100 µM |  |  |  |  |  |  |  |  |  | 
4 | COc1ccc2c(c1O)C(=O)C(CCC(=O)O)CC2 (stereo not drawn) |  | > 100 µM | > 100 µM | > 100 µM | > 100 µM | > 100 µM |  | > 100 µM |  |  |  |  |  |  |  |  |  | 
5 | CCSC(SCC)c1cc2c(cc1Br)OCO2 | > 100 µM | 89.3 µM | > 100 µM | 38 µM | > 100 µM | 32.9 µM | 51.9 µM | 38.4 µM |  |  |  |  |  |  |  |  |  | 
6 | C=CCCOC(=O)CO[N+](=O)[O-] | > 100 µM | > 100 µM | > 100 µM | > 100 µM |  | > 100 µM | > 100 µM |  |  |  |  |  |  |  |  |  |  | 
7 | C=CCCCn1ccc2ccccc21 | > 100 µM | > 100 µM |  | > 100 µM | > 100 µM | > 100 µM | > 100 µM | > 100 µM |  |  |  |  |  |  |  |  |  | 
8 | CC(=O)[O-].CC(=O)[O-].O=C(N/N=C/c1cc(Cl)cc(Cl)c1O)c1ccncc1.[Ni+2] | > 100 µM | > 100 µM |  | > 100 µM | > 100 µM | > 100 µM | 87.4 µM | > 100 µM |  |  |  |  |  |  |  |  | 46.6 µM | 
9 | COc1ccc(/C=C/C(=O)C(C)(C)CN2CCCCC2)cc1 | 55.7 µM | 38 µM | 22.1 µM | 29.6 µM | 65.5 µM | 30 µM | 32.7 µM | 35.5 µM |  |  |  |  |  |  |  |  |  | 
10 | Cc1c(-c2ccccc2)c(=O)oc2ccc(Cl)cc12 | > 100 µM |  | > 100 µM | > 100 µM | > 100 µM | > 100 µM | > 100 µM | > 100 µM |  |  |  |  |  |  |  |  |  | 
11 | CCCCCCCCCCCCCCCCOCC(CN(C)CCN(C)C)OCCCCCCCCCCCCCCCC (stereo not drawn) | > 100 µM | > 100 µM | > 100 µM | > 100 µM | > 100 µM | > 100 µM | > 100 µM | > 100 µM |  |  |  |  |  |  |  |  |  | 
12 | COc1cc(Br)c(CC2(C#N)c3ccccc3C3C(N2C(=O)c2ccccc2)C3(Cl)Cl)cc1OC (stereo not drawn) | > 65.5 µM | > 65.5 µM |  | > 65.5 µM | > 65.5 µM | > 65.5 µM | > 65.5 µM | > 65.5 µM |  |  |  |  |  |  |  |  |  | 
13 | CCOC(=O)Cc1nc2ccccc2s1 | > 10 µM | 35.3 µM | > 10 µM | 32.4 µM | 33.3 µM | 30.7 µM | 36.5 µM | 48.5 µM |  |  |  |  |  |  |  |  |  | 
14 | O=C(O)C1=C(C(=O)Nc2ccccc2)C2C=CC1C2 (stereo not drawn) | > 100 µM | > 100 µM | > 100 µM | > 100 µM | > 100 µM | > 100 µM |  | > 100 µM |  |  |  |  |  |  |  |  |  | 
15 | C#Cc1c(C)c(/C=C/C(C)=C/C=C/C(C)=C/C(=O)OC)n(C)c1C | > 100 µM |  | > 100 µM | > 100 µM | > 100 µM | > 100 µM | > 100 µM |  |  |  |  |  |  |  |  |  |  | 
16 | O=C1OC(c2ccccc2)=N/C1=C\c1ccc2ccccc2c1 | > 100 µM | > 100 µM | > 100 µM | > 100 µM | > 100 µM | > 100 µM | > 100 µM | > 100 µM |  |  |  |  |  |  |  |  |  | 
17 | COCc1c(CO)cnc(C)c1OC1OC(CO)C(O)C(O)C1O (stereo not drawn) | > 100 µM | > 100 µM | > 100 µM | > 100 µM | > 100 µM | > 100 µM | > 100 µM | > 100 µM |  |  |  |  |  |  |  |  |  | 

Row | SMILES | TGI (KM12 colon) | TGI (RXF 393 renal) | TGI (OVCAR-4 ovarian) | TGI (LOX IMVI melanoma) | TGI (UACC-62 melanoma) | TGI (U251 CNS) | TGI (SK-MEL-2 melanoma) | TGI (SK-MEL-5 melanoma) | GI50 (KM12 colon) | GI50 (RXF 393 renal) | GI50 (PC-3 prostate) | TGI (PC-3 prostate) | GI50 (OVCAR-4 ovarian) | GI50 (LOX IMVI melanoma) | GI50 (UACC-62 melanoma) | GI50 (U251 CNS) | GI50 (SK-MEL-2 melanoma) | GI50 (SK-MEL-5 melanoma)
18 | N.N.N.N.O=NN1CCCCCC1(P(=O)([O-])[O-])P(=O)([O-])[O-].[Pt+4].[Pt+4] | > 100 µM | > 100 µM | > 100 µM | > 100 µM | > 100 µM | > 100 µM | > 100 µM | > 100 µM | > 100 µM | > 100 µM |  |  | > 100 µM | > 100 µM | > 100 µM | > 100 µM | 79.6 µM | > 100 µM
19 | CC(/C=C/C(=O)c1sc(-n2nc(-c3ccccc3)cc2-c2ccccc2)nc1C)=C\c1ccccc1 | > 100 µM | > 100 µM | > 100 µM | > 100 µM | > 100 µM | > 100 µM | > 100 µM | > 100 µM |  | > 100 µM |  |  | > 100 µM |  |  |  |  | 
20 | Cc1nnc(N=Nc2c(O)[nH]c3c(Cl)cc(Cl)cc23)n1N | > 100 µM | > 100 µM | > 100 µM | > 100 µM | > 100 µM | > 100 µM | > 100 µM |  |  |  |  |  |  |  |  |  |  | 
21 | Cc1ccc2c(c1)C(C)Cc1c(ncnc1-n1cnc3cc(C)ccc31)N2C (stereo not drawn) | 12.2 µM | 8.74 µM | 19 µM | 12.2 µM | 16.7 µM | 12.1 µM | 15.8 µM | 0.165 µM | 0.0368 µM | 0.0289 µM | 0.0434 µM | 16.5 µM | 0.0729 µM | 0.0361 µM | 0.086 µM | 0.0362 µM | 0.0419 µM | 0.0324 µM
22 | CCN(CC)c1ccc(C2CC(c3cc(OC)c(OC)c(OC)c3)=NN2)cc1 (stereo not drawn) | > 100 µM |  | > 100 µM | > 42 µM | > 68.2 µM | > 100 µM | > 95.5 µM | 3.52 µM | 0.372 µM |  | 0.342 µM | 35.2 µM | 4.34 µM | 0.83 µM | 0.446 µM | 0.42 µM | 6.6 µM | 0.706 µM
23 | O=C1Nc2cc(Cl)ccc2N=CC1NC(=O)C(c1ccccc1)c1ccccc1Cl (stereo not drawn) | > 100 µM | > 100 µM | > 100 µM | > 100 µM | > 100 µM | > 100 µM | > 100 µM | > 100 µM |  |  |  |  |  |  |  |  |  | 
24 | COc1cc2c3c(c4ccc(OC)c(OC)c4c2cc1OC)CN1CCC[C@@H]1C3 | 0.965 µM | 0.29 µM | 1.42 µM | 0.384 µM | 0.35 µM | > 23.3 µM | 0.237 µM | 0.324 µM |  |  |  | 6.58 µM |  |  |  |  |  | 
25 | Cc1ccc(-n2c3nc(=O)n(C)c(=O)c-3nc3ccccc32)cc1 | > 100 µM | > 100 µM | 28.5 µM | 43.7 µM | 5.52 µM | 39.8 µM | 37.2 µM | 26.2 µM |  |  |  |  |  |  |  |  |  | 
26 | CCN(CC)CC.CCOc1ccc(NC(=O)N=C=[N-])cc1.[CH-]1CCCCC1.[CH-]1CCCCC1.[CH-]1CCCCC1.[Cl-].[Sn+4] | 0.0429 µM | 0.0336 µM | 0.139 µM | 0.0483 µM | 0.0559 µM | 0.0718 µM | 0.0964 µM | 0.0941 µM | 0.0161 µM | 0.0146 µM | 0.0596 µM | 0.21 µM | 0.0446 µM | 0.0157 µM | 0.0228 µM | 0.0261 µM | 0.0376 µM | 0.0303 µM
27 | C[N+](C)(C)CC(=O)N/N=C(\CCC(=O)NCCc1ccccc1)CC(=O)c1ccccc1 | > 100 µM |  | > 100 µM | > 100 µM | > 100 µM | > 100 µM | > 100 µM | > 100 µM |  |  |  |  |  |  |  |  |  | 
28 | CN(C)c1ncnc2c1Cc1ccccc1C(=O)N2C | > 100 µM | > 100 µM | > 100 µM | > 100 µM | > 100 µM | > 100 µM | > 100 µM | > 100 µM |  |  |  |  |  |  |  |  |  | 
29 | CC1CN(c2ccc(Cl)cc2)CC(C)(C)OC(=O)O1 (stereo not drawn) | > 100 µM | > 100 µM | > 100 µM | > 100 µM | > 100 µM | > 100 µM | > 100 µM | > 100 µM |  |  |  |  |  |  |  |  |  | 
30 | COc1c2c3ccccc3nc-2n(C)c2ccccc12 | > 100 µM | 78.1 µM |  | 26.3 µM | 33 µM | 32.7 µM | > 100 µM | 33.1 µM | 8.63 µM | 21.3 µM | 5.25 µM | 20.5 µM |  | 4.73 µM | 11.1 µM | 7.81 µM | 36.8 µM | 12.8 µM
31 | Nc1nc(Cl)cc(NCCCCCNc2cc(Cl)nc(N)n2)n1 | > 100 µM | > 100 µM | > 100 µM | > 100 µM | 83.9 µM | > 100 µM | > 100 µM | > 100 µM |  |  |  |  |  |  |  |  |  | 
32 | O=C(NCCO)c1cc2c(cn1)[nH]c1ccccc12 | > 100 µM | > 100 µM | > 100 µM | > 100 µM | > 100 µM | > 100 µM | 33.6 µM | > 100 µM |  |  |  |  |  |  |  |  |  | 
33 | CSc1nc(NC2OCC(OC(C)=O)C(OC(C)=O)C2OC(C)=O)c(N=C(C)C(C)=O)c(=O)n1C (stereo not drawn) | > 100 µM | > 100 µM | > 100 µM | > 100 µM | > 100 µM | > 100 µM | > 100 µM | > 100 µM |  |  |  |  |  |  |  |  |  | 
